For test [1], the system named is HT-1080. The test can be described thus: Antiproliferative activity against human HT-1080 cells assessed as inhibition of cell growth incubated for 72 hrs by MTT assay. The format is functional, cell-based. Particulars: HT-1080, 72 h. Background: Tetrazolium dyes change colour on reduction, which living cells bring about.
The subject of test [2] is HT-1080. In words: HyT activity at GPX4/E3 ligase in human HT-1080 cells assessed as degradation of GPX4 protein at 0.2 uM incubated for 24 hrs by Western blotting analysis relative to control. The format is cell-based. In general terms: A western blot detects proteins with antibodies after separation by electrophoresis.
For test [3], the system named is HT-1080. The test can be described thus: HyT activity at GPX4/E3 ligase in human HT-1080 cells assessed as degradation of GPX4 protein at 0.05 uM incubated for 24 hrs by Western blotting analysis relative to control. The format is cell-based.
The test system of test [4] is HT-1080. The test can be described thus: Induction of ferroptosis in human HT-1080 cells assessed as increase in ROS production at 0.2 to 0.5 uM incubated for 4 hrs in presence of ferrostatin-1 by DCFH-DA dye based flow cytometry. The format is functional, cell-based. The conditions noted are these: dose 0.2-0.5 µM. A general note: A flow cytometer gives signals particle by particle.

The test system of test [5] is HT-1080. The test can be described thus: HyT activity at GPX4/E3 ligase in human HT-1080 cells assessed as degradation of GPX4 protein at 0.05 uM incubated for 20 hrs by Western blotting analysis. The class given is cell-based.
A further test has as its system OS-RC-2. In words: Antiproliferative activity against human OS-RC-2 cells assessed as inhibition of cell growth incubated for 72 hrs by MTT assay. The class given is functional, cell-based. Particulars: OS-RC-2, 72 h.
The subject of test [6] is HT-1080. The test can be described thus: Induction of ferroptosis in human HT-1080 cells assessed as increase in ROS production at 0.2 to 0.5 uM incubated for 4 hrs by DCFH-DA dye based flow cytometry. The class given is functional, cell-based. The conditions noted are these: dose 0.2-0.5 µM.
In test [7] the test system is HT-1080. In words: HyT activity at GPX4/E3 ligase in human HT-1080 cells assessed as degradation of GPX4 protein at 0.05 uM in presence of cycloheximide by Western blotting analysis. The class given is cell-based. The conditions noted are these: TDE = time-dependent effect.
In test [8] the test system is HT-1080. In words: HyT activity at GPX4/E3 ligase in human HT-1080 cells assessed as degradation of GPX4 protein at 0.05 uM incubated for 12 hr in presence of chloroquine by Western blotting analysis. The class given is cell-based.
Test [9] is described as follows: HyT activity at GPX4/E3 ligase in human HT-1080 cells assessed as degradation of GPX4 protein by measuring degradation concentration incubated for 24 hrs by Western blotting analysis. The class given is cell-based. Particulars: HT-1080, 24 h.
In test [10] the test system is HT-1080. The test can be described thus: HyT activity at GPX4/E3 ligase in human HT-1080 cells assessed as degradation of GPX4 protein at 0.05 uM incubated for 12 hr in presence of MG132 by Western blotting analysis. The class given is cell-based.
Test [11] deals with HT-1080. In words: Induction of ferroptosis in human HT-1080 cells assessed as increase in lipid peroxidation at 0.2 to 0.5 uM incubated for 4 hrs in presence of ferrostatin-1 by C11 BODIPY 581/591 dye based flow cytometry. The format is functional, cell-based. The conditions noted are these: dose 0.2-0.5 µM.
The subject of test [12] is HT-1080. The test can be described thus: HyT activity at GPX4/E3 ligase in human HT-1080 cells assessed as degradation of GPX4 protein at 0.05 uM incubated for 7 hrs by Western blotting analysis. The format is cell-based.
Test [13] has as its system HT-1080. The test can be described thus: HyT activity at GPX4/E3 ligase in human HT-1080 cells assessed as degradation of GPX4 protein incubated for 24 hrs by Western blotting analysis. The format is cell-based.
In a further test the test system is 786-0. In words: Antiproliferative activity against human 786-0 cells assessed as inhibition of cell growth incubated for 72 hrs by MTT assay. The conditions noted are these: 786-0, 72 h. The class given is functional, cell-based.
Test [14] has as its system HT-1080. In words: Induction of ferroptosis in human HT-1080 cells assessed as increase in lipid peroxidation at 0.2 to 0.5 uM incubated for 4 hrs by C11 BODIPY 581/591 dye based flow cytometry. The class given is functional, cell-based. Particulars: dose 0.2-0.5 µM.
Test [15] deals with HT-1080. The test can be described thus: HyT activity at GPX4/E3 ligase in human HT-1080 cells assessed as degradation of GPX4 protein at 0.05 uM measured after 4 hrs in presence of cycloheximide by Western blotting analysis. The class given is cell-based.
In test [16] the test system is MDA-MB-231. In words: Antiproliferative activity against human MDA-MB-231 cells assessed as fold increase in inhibition of cell growth incubated for 72 hrs by MTT assay relative to RSL3. The format is functional.
Test [17] deals with HT-1080. The test can be described thus: HyT activity at GPX4/E3 ligase in human HT-1080 cells assessed as degradation of GPX4 protein at 0.05 uM by Western blotting analysis. The conditions noted are these: TDE = time-dependent effect. The format is cell-based.
Test [18] deals with MDA-MB-231. In words: Antiproliferative activity against human MDA-MB-231 cells assessed as inhibition of cell growth incubated for 72 hrs by MTT assay. Particulars: MDA-MB-231, 72 h. The format is functional, cell-based.
The test system of test [19] is HT-1080. In words: HyT activity at GPX4/E3 ligase in human HT-1080 cells assessed as degradation of GPX4 protein at 0.05 uM incubated for 12 hrs by Western blotting analysis relative to control. The class given is cell-based.
The subject of test [20] is HT-1080. The test can be described thus: HyT activity at GPX4/E3 ligase in human HT-1080 cells assessed as degradation of GPX4 protein at 0.05 uM incubated for 12 hr by Western blotting analysis. The format is cell-based.

As usually defined, the IC50 is the concentration needed to halve the response being measured. The DC50 is the concentration giving 50% degradation.

SMILES strings stand for the structures. Calls of active or inactive are those of the source. No cut-off for these calls is given here.

Consider `COC(=O)[C@H]1Cc2c([nH]c3ccccc23)[C@H](c2ccc(C(=O)NCCOCCNC(=O)CC34CC5CC(CC(C5)C3)C4)cc2)N1C(=O)CCl`, for which, in the test with HT-1080 [1], the 50% inhibitory concentration (IC50) is 0.12 µM.
With `COC(=O)[C@H]1Cc2c([nH]c3ccccc23)[C@H](c2ccc(C(=O)NCCCCCCCCNC(=O)CC34CC5CC(CC(C5)C3)C4)cc2)N1C(=O)CCl`, the figures for the Activity in the test on HT-1080 [2] and in the test with HT-1080 [3] were 31% and 15%, respectively. Further, the IC50 with HT-1080 [1] was 0.163 µM.
As to `COC(=O)[C@H]1Cc2c([nH]c3ccccc23)[C@H](c2ccc(C(=O)NCCCCCCNC(=O)CC34CC5CC(CC(C5)C3)C4)cc2)N1C(=O)CCl`, the Activity with HT-1080 [2] was found to be 59%; in the test with HT-1080 [3], 44%. Moreover, the IC50 with HT-1080 [1] worked out at 0.028 µM.
Regarding `COC(=O)[C@H]1Cc2c([nH]c3ccccc23)[C@H](c2ccc(C(=O)N3CCN(CCCCCCCCNC(=O)CC45CC6CC(CC(C6)C4)C5)CC3)cc2)N1C(=O)CCl`, the Activity with HT-1080 [2] turned out to be 58%; in the test on HT-1080 [3], 35%. Further, the IC50 in the test on HT-1080 [1] is 0.041 µM.
For the compound `COC(=O)[C@H]1Cc2c([nH]c3ccccc23)[C@H](c2ccc(C(=O)NCCNC(=O)CC34CC5CC(CC(C5)C3)C4)cc2)N1C(=O)CCl`, the figures for the Activity in the test with HT-1080 [2] and with HT-1080 [3] were 52% and 33%, respectively. Besides, in the test on HT-1080 [1], the half-maximal inhibitory concentration (IC50) turned out to be 0.058 µM.
The matching figures for `COC(=O)[C@H]1Cc2c([nH]c3ccccc23)[C@H](c2ccc(C(=O)N3CCN(CCCCCCNC(=O)CC45CC6CC(CC(C6)C4)C5)CC3)cc2)N1C(=O)CCl`: 70%, 44% and 0.03 µM.
Take `COC(=O)[C@H]1Cc2c([nH]c3ccccc23)[C@H](c2ccc(C(=O)NCCCCCCCCCCNC(=O)CC34CC5CC(CC(C5)C3)C4)cc2)N1C(=O)CCl`: the results for the Activity in the test with HT-1080 [2] and in the test on HT-1080 [3] were 72% and 35%, respectively. The 50% inhibitory concentration (IC50) in the test with HT-1080 [1] stood at 0.036 µM.
In the case of `COC(=O)[C@H]1Cc2c([nH]c3ccccc23)[C@H](c2ccc(C(=O)N3CCN(CCCCNC(=O)CC45CC6CC(CC(C6)C4)C5)CC3)cc2)N1C(=O)CCl`, in the test on HT-1080 [1], the concentration for half-maximal inhibition (IC50) came out at 0.2 µM.
`COC(=O)[C@H]1Cc2c([nH]c3ccccc23)[C@H](c2ccc(C(=O)N3CCN(CCNC(=O)CC45CC6CC(CC(C6)C4)C5)CC3)cc2)N1C(=O)CCl`: the half-inhibitory concentration (IC50) with HT-1080 [1] is 0.071 µM.
In the case of `COC(=O)[C@H]1Cc2c([nH]c3ccccc23)[C@H](c2ccc(C(=O)NCCCCNC(=O)CC34CC5CC(CC(C5)C3)C4)cc2)N1C(=O)CCl`, the Activity stood at 37% in the test with HT-1080 [2] and 15% with HT-1080 [3]. Moreover, in the test on HT-1080 [1], the IC50 stood at 0.122 µM.
On to `COC(=O)[C@H]1Cc2c([nH]c3ccccc23)[C@H](c2ccc(C(=O)NCCOCCOCCNC(=O)CC34CC5CC(CC(C5)C3)C4)cc2)N1C(=O)CCl`, for which the half-inhibitory concentration (IC50) in the test with HT-1080 [1] is 0.064 µM.
Regarding `COC(=O)[C@H]1Cc2c([nH]c3ccccc23)[C@H](c2ccc(C(=O)NCCCCCCCNC(=O)CC34CC5CC(CC(C5)C3)C4)cc2)N1C(=O)CCl`, the outcome in the test with HT-1080 [4], with HT-1080 [8], with HT-1080 [10] and with HT-1080 [11] was inactive. In addition, the result in the test with HT-1080 [5], in the test on HT-1080 [6], in the test with HT-1080 [12], in the test with HT-1080 [14] and in the test on HT-1080 [15] was Active. The IC50 in the test on OS-RC-2 is 0.072 µM; in the test on HT-1080 [1], 0.024 µM; in the test on 786-0, 0.046 µM; with MDA-MB-231 [18], 0.032 µM. The Activity result with HT-1080 [7] was “Tde”; in the test on HT-1080 [2] it was 78%; in the test with HT-1080 [13] it was “Dose-Dependent Effect”; with HT-1080 [17], “Tde”; with HT-1080 [3], 47%; with HT-1080 [19], 50%. The DC50 in test [9] turned out to be 0.019 µM. Moreover, the “fold change (FC)” value in the test on MDA-MB-231 [16] worked out at 4.
On to `COC(=O)[C@H]1Cc2c([nH]c3ccccc23)[C@H](c2ccc(C(=O)NCCOCCOCCOCCNC(=O)CC34CC5CC(CC(C5)C3)C4)cc2)N1C(=O)CCl`, for which the 50% inhibitory concentration (IC50) in the test with HT-1080 [1] was 0.498 µM.
For `COC(=O)[C@H]1Cc2c([nH]c3ccccc23)[C@H](c2ccc(C(=O)NCCCCCCCNC(C)=O)cc2)N1C(=O)CCl`, the figures for the Activity in the test with HT-1080 [2] and with HT-1080 [3] were 6% and 5%, respectively. Also, the concentration for half-maximal inhibition (IC50) in the test with HT-1080 [1] was 0.38 µM.
Consider `COC(=O)c1ccc([C@H]2c3[nH]c4ccccc4c3C[C@H](C(=O)OC)N2C(=O)CCl)cc1`, for which the IC50 amounted to 0.082 µM with OS-RC-2, 0.09 µM in the test on HT-1080 [1], 0.047 µM in the test with 786-0 and 0.129 µM in the test with MDA-MB-231 [18]. Also, the Activity in the test with HT-1080 [2] came to 39%; with HT-1080 [3], 21%. The outcome in the test on HT-1080 [20] was Active.
As for `COC(=O)[C@H]1Cc2c([nH]c3ccccc23)[C@H](c2ccc(C(=O)NCCCCCNC(=O)CC34CC5CC(CC(C5)C3)C4)cc2)N1C(=O)CCl`, the results for the Activity in the test with HT-1080 [2] and in the test on HT-1080 [3] were 38% and 20%, respectively. Besides, in the test on HT-1080 [1], the IC50 was 0.064 µM.
